Experimental data published in patent publication US20220340633A1 (Adepthera LLC, priority 2016, published 2022).
Entries after “also recorded” stand apart in the source; their conditions may differ. Positions of bridges follow the written chain, without caps; N, C: chain ends. Non-standard residues stand in square brackets, D forms with d. Residues, ends and D or L forms follow the SMILES beside them. *: point of attachment. Palmitoyl = CCCCCCCCCCCCCCCC(=O)*; AEEA = NCCOCCOCC(=O)O

Columns and labels:
[1] = test system: primary human lymphatic endothelia cells (HLEC); test: HLEC survival in medium with 0.1% FBS, MTS assay; conditions: 30, 100, and 300 nM, 72 hrs
Experimental: The cells were cultured for 72 hrs, and cell viability was assayed with the MTS assay (Promega).

[2] = molecular target: T1, CLR/RAMP2 receptor (Homo sapiens, UniProt O60895+Q16602); test: CLR/RAMP2 arrestin receptor activation assay (agonist); type: cell-based; conditions: for Emax: CHO-K1, read-out: CLR/RAMP 2 Max Activity % of positive control, CHO-K1 cells, % of positive control (ADM)
T1 construct: host or cells: CHO-K1 cells
T1 sequence (Q16602 23-461): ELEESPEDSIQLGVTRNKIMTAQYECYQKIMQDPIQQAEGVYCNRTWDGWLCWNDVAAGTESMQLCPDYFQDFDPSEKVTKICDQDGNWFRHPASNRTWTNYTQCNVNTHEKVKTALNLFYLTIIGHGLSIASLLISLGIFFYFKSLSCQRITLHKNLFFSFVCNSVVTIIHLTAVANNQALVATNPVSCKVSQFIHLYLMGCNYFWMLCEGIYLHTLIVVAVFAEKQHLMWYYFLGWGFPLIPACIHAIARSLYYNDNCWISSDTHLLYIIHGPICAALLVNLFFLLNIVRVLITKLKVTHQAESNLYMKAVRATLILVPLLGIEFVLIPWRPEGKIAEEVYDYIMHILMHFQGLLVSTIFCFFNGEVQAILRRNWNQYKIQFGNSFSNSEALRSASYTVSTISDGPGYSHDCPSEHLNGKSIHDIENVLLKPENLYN
T1 sequence (O60895 43-175): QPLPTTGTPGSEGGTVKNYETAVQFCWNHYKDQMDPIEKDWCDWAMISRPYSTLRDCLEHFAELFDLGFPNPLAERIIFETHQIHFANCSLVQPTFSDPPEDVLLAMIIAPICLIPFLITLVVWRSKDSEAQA
Experimental: (§1) Using a receptor activation assay, the dose-dependent stimulatory response of peptide agonists of the present invention on a CLR/RAMP1 receptor, a CLR/RAMP2, or a CLR/RAMP3 receptor complex was determined. A cell line carrying the recombinant CLR/RAMP1, CLR/RAMP2, or a CLR/RAMP3 receptor was employed in the assay. Peptide agonist activities were tested, in duplicate, at 10 different concentrations, starting with 1.0 μM and serially diluted 3-fold, in DMSO. […] The CLR/RAMP1 cAMP, CLR/RAMP2 arrestin assays, and CLR/RAMP3 cAMP (DiscoveRx, Fremont, Calif.) were used.

[3] = molecular target: CLR/RAMP1 receptor (Homo sapiens, UniProt O60894+Q16602); test: CLR/RAMP1 cAMP receptor activation assay (agonist); type: cell-based; design: host or cells: 1321N1 cells; conditions: 1321-N1, read-out: CLR/RAMP 1 Max Activity % of positive control, 1321N1 cells; % of positive control (β-CGRP)
Chain of CLR/RAMP1 receptor (Q16602 23-461): as the sequence (Q16602 23-461) above
Chain of CLR/RAMP1 receptor (O60894 27-148): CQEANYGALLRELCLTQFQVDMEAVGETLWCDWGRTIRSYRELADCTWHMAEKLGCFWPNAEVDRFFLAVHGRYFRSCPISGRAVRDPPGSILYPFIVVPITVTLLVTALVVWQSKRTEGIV
Experimental: as §1

Compound | HLEC survival (in words) [1] | Emax [2] [%] | receptor specificity of agonist ([2]; CLR/RAMP2 versus CLR/RAMP1) | Emax [3] [%]
CSCC[C@H](NC(=O)[C@H](CC(C)C)NC(=O)[C@H](CCC(N)=O)NC(=O)[C@H](Cc1c[nH]c2ccccc12)NC(=O)[C@H](CC(C)C)NC(=O)[C@H](CCCNC(=N)N)NC(=O)[C@H](Cc1c[nH]cn1)NC(=O)[C@H](CO)NC(=O)[C@H](CC(C)C)NC(=O)[C@H](CC(N)=O)NC(=O)[C@H](CCC(N)=O)NC(=O)[C@@H](NC(=O)[C@H](CCC(N)=O)NC(=O)[C@@H]1CSSC[C@H](NC(=O)CNC(=O)[C@@H](NC(C)=O)C(C)C)C(=O)N[C@@H](C(C)C)C(=O)N[C@@H](CC(C)C)C(=O)NCC(=O)N[C@@H]([C@@H](C)O)C(=O)N1)C(C)C)C(=O)NCC(=O)N1CCC[C@H]1C(=O)N[C@@H](C)C(=O)NCC(=O)N[C@@H](CCCNC(=N)N)C(=O)N[C@@H](CCC(N)=O)C(=O)N[C@@H](CC(=O)O)C(=O)N[C@@H](CO)C(=O)N[C@@H](C)C(=O)N1CCC[C@H]1C(=O)N[C@H](C(=O)N[C@@H](CC(=O)O)C(=O)N1CCC[C@H]1C(=O)N[C@@H](CO)C(=O)N[C@@H](CO)C(=O)N1CCC[C@H]1C(=O)N[C@@H](Cc1c[nH]cn1)C(=O)N[C@@H](CO)C(=O)N[C@@H](Cc1ccc(O)cc1)C(N)=O)C(C)C [SEQ ID NO: 52, reference compound] | minimal effects; also recorded: negligible effects |  |  | 
CC[C@H](C)[C@H](NC(=O)[C@H](CCC(N)=O)NC(=O)[C@H](Cc1c[nH]cn1)NC(=O)[C@H](C)NC(=O)[C@H](CC(C)C)NC(=O)[C@H](CCCCN)NC(=O)[C@H](CCC(N)=O)NC(=O)[C@@H](NC(=O)[C@@H](NC(=O)[C@@H]1CSSC[C@H](NC(=O)CNC(=O)[C@H](CCCCN)NC(C)=O)C(=O)N[C@@H](CCCNC(=N)N)C(=O)N[C@@H](Cc2ccccc2)C(=O)NCC(=O)N[C@@H]([C@@H](C)O)C(=O)N1)[C@@H](C)O)C(C)C)C(=O)N[C@@H](Cc1ccc(O)cc1)C(=O)N[C@@H](CCC(N)=O)C(=O)N[C@@H](Cc1ccccc1)C(=O)N[C@H](C(=O)N[C@@H](CC(=O)O)C(=O)N[C@@H](CCCCN)C(=O)N[C@@H](CC(=O)O)C(=O)N[C@@H](CCCCN)C(=O)N[C@@H](CC(=O)O)C(=O)N[C@@H](CC(N)=O)C(=O)N[C@@H](CO)C(=O)N[C@@H](C)C(=O)N1CCC[C@H]1C(=O)N[C@H](C(=O)N[C@@H](CC(=O)O)C(=O)N1CCC[C@H]1C(=O)N[C@@H](CO)C(=O)N[C@@H](CO)C(=O)N1CCC[C@H]1C(=O)N[C@@H](Cc1c[nH]cn1)C(=O)N[C@@H](CO)C(=O)N[C@@H](Cc1ccc(O)cc1)C(N)=O)C(C)C)[C@@H](C)O [SEQ ID NO: 59] | minimal effects; also recorded: negligible effects |  |  | 
CCCCCCCCCCCCCCCC(=O)N[C@@H](CCCCN)C(=O)NCC(=O)N[C@H]1CSSC[C@@H](C(=O)N[C@H](C(=O)N[C@H](C(=O)N[C@@H](CCC(N)=O)C(=O)N[C@@H](CCCCN)C(=O)N[C@@H](CC(C)C)C(=O)N[C@@H](C)C(=O)N[C@@H](Cc2c[nH]cn2)C(=O)N[C@@H](CCC(N)=O)C(=O)N[C@H](C(=O)N[C@@H](Cc2ccc(O)cc2)C(=O)N[C@@H](CCC(N)=O)C(=O)N[C@@H](Cc2ccccc2)C(=O)N[C@H](C(=O)N[C@@H](CC(=O)O)C(=O)N[C@@H](CCCCN)C(=O)N[C@@H](CC(=O)O)C(=O)N[C@@H](CCCCN)C(=O)N[C@@H](CC(=O)O)C(=O)N[C@@H](CC(N)=O)C(=O)N[C@@H](CO)C(=O)N[C@@H](C)C(=O)N2CCC[C@H]2C(=O)N[C@H](C(=O)N[C@@H](CC(=O)O)C(=O)N2CCC[C@H]2C(=O)N[C@@H](CO)C(=O)N[C@@H](CO)C(=O)N2CCC[C@H]2C(=O)N[C@@H](Cc2c[nH]cn2)C(=O)N[C@@H](CO)C(=O)N[C@@H](Cc2ccc(O)cc2)C(N)=O)C(C)C)[C@@H](C)O)[C@@H](C)CC)C(C)C)[C@@H](C)O)NC(=O)[C@H]([C@@H](C)O)NC(=O)CNC(=O)[C@H](Cc2ccccc2)NC(=O)[C@H](CCCNC(=N)N)NC1=O [SEQ ID NO: 30] | dose-dependently stimulated; also recorded: significantly promote |  |  | 
CCCCCCCCCCCCCCCC(=O)NCCCC[C@H](NC(=O)COCCOCCN)C(=O)NCC(=O)N[C@H]1CSSC[C@@H](C(=O)N[C@H](C(=O)N[C@H](C(=O)N[C@@H](CCC(N)=O)C(=O)N[C@@H](CCCCN)C(=O)N[C@@H](CC(C)C)C(=O)N[C@@H](C)C(=O)N[C@@H](Cc2c[nH]cn2)C(=O)N[C@@H](CCC(N)=O)C(=O)N[C@H](C(=O)N[C@@H](Cc2ccc(O)cc2)C(=O)N[C@@H](CCC(N)=O)C(=O)N[C@@H](Cc2ccccc2)C(=O)N[C@H](C(=O)N[C@@H](CC(=O)O)C(=O)N[C@@H](CCCCN)C(=O)N[C@@H](CC(=O)O)C(=O)N[C@@H](CCCCN)C(=O)N[C@@H](CC(=O)O)C(=O)N[C@@H](CC(N)=O)C(=O)N[C@H](C(=O)N[C@@H](CC(=O)O)C(=O)N2CCC[C@H]2C(=O)N[C@@H](CO)C(=O)N[C@@H](CO)C(=O)N2CCC[C@H]2C(=O)N[C@@H](Cc2c[nH]cn2)C(=O)N[C@@H](CO)C(=O)N[C@@H](Cc2ccc(O)cc2)C(N)=O)C(C)C)[C@@H](C)O)[C@@H](C)CC)C(C)C)[C@@H](C)O)NC(=O)[C@H]([C@@H](C)O)NC(=O)CNC(=O)[C@H](Cc2ccccc2)NC(=O)[C@H](CCCNC(=N)N)NC1=O [SEQ ID NO: 94] |  | 82 | CLR/RAMP2-specific | 67
CCCCCCCCCCCCCCCC(=O)NCCCC[C@H](NC(=O)COCCOCCN)C(=O)NCC(=O)N[C@H]1CSSC[C@@H](C(=O)N[C@H](C(=O)N[C@H](C(=O)N[C@@H](CCC(N)=O)C(=O)N[C@@H](CCCCN)C(=O)N[C@@H](CC(C)C)C(=O)N[C@@H](C)C(=O)N[C@@H](Cc2c[nH]cn2)C(=O)N[C@@H](CCC(N)=O)C(=O)N[C@H](C(=O)N[C@@H](Cc2ccc(O)cc2)C(=O)N[C@@H](CCC(N)=O)C(=O)N[C@@H](Cc2ccccc2)C(=O)N[C@H](C(=O)N[C@@H](CC(=O)O)C(=O)N[C@@H](CCCCN)C(=O)N[C@@H](CC(=O)O)C(=O)N[C@@H](CCCCN)C(=O)N[C@@H](CC(=O)O)C(=O)N[C@@H](CO)C(=O)N[C@@H](C)C(=O)N2CCC[C@H]2C(=O)N[C@H](C(=O)N[C@@H](CC(=O)O)C(=O)N2CCC[C@H]2C(=O)N[C@@H](CO)C(=O)N[C@@H](CO)C(=O)N2CCC[C@H]2C(=O)N[C@@H](Cc2c[nH]cn2)C(=O)N[C@@H](CO)C(=O)N[C@@H](Cc2ccc(O)cc2)C(N)=O)C(C)C)[C@@H](C)O)[C@@H](C)CC)C(C)C)[C@@H](C)O)NC(=O)[C@H]([C@@H](C)O)NC(=O)CNC(=O)[C@H](Cc2ccccc2)NC(=O)[C@H](CCCNC(=N)N)NC1=O [SEQ ID NO: 46] (H-[AEEA]K(Palmitoyl)GCRFGTCTVQKLAHQIYQFTDKDKDSAPVDPSSPHSY-NH2; disulfide 4-9) |  | 104 |  | 60
CCCCCCCCCCCCCCCC(=O)NCCCC[C@H](NC(=O)[C@@H](NC(=O)COCCOCCN)[C@@H](C)O)C(=O)N[C@@H](CCCCN)C(=O)N[C@H](C(=O)N[C@@H](CC(C)C)C(=O)N[C@@H](CCCNC(=N)N)C(=O)N[C@H](C(=O)NCC(=O)N[C@H]1CSSC[C@@H](C(=O)N[C@H](C(=O)N[C@H](C(=O)N[C@@H](CCC(N)=O)C(=O)N[C@@H](CCCCN)C(=O)N[C@@H](CC(C)C)C(=O)N[C@@H](C)C(=O)N[C@@H](Cc2c[nH]cn2)C(=O)N[C@@H](CCC(N)=O)C(=O)N[C@H](C(=O)N[C@@H](Cc2ccc(O)cc2)C(=O)N[C@@H](CCC(N)=O)C(=O)N[C@@H](Cc2ccccc2)C(=O)N[C@H](C(=O)N[C@@H](CC(=O)O)C(=O)N[C@@H](CCCCN)C(=O)N[C@@H](CC(=O)O)C(=O)N[C@@H](CCCCN)C(=O)N[C@@H](CC(=O)O)C(=O)N[C@@H](CC(N)=O)C(=O)N[C@H](C(=O)N[C@@H](C)C(=O)N2CCC[C@H]2C(=O)N[C@H](C(=O)N[C@@H](CC(=O)O)C(=O)N2CCC[C@H]2C(=O)N[C@@H](CO)C(=O)N[C@@H](CO)C(=O)N2CCC[C@H]2C(=O)N[C@@H](Cc2c[nH]cn2)C(=O)N[C@@H](CO)C(=O)N[C@@H](Cc2ccc(O)cc2)C(N)=O)C(C)C)C(C)C)[C@@H](C)O)[C@@H](C)CC)C(C)C)[C@@H](C)O)NC(=O)[C@H]([C@@H](C)O)NC(=O)CNC(=O)[C@H](Cc2ccccc2)NC(=O)[C@H](CCCNC(=N)N)NC1=O)[C@@H](C)O)[C@@H](C)O [SEQ ID NO: 42] |  | 76 |  | 56
CCCCCCCCCCCCCCCC(=O)NCCCC[C@H](NC(=O)COCCOCCN)C(=O)NCC(=O)N[C@H]1CSSC[C@@H](C(=O)N[C@H](C(=O)N[C@H](C(=O)N[C@@H](CCC(N)=O)C(=O)N[C@@H](CCCCN)C(=O)N[C@@H](CC(C)C)C(=O)N[C@@H](C)C(=O)N[C@@H](Cc2c[nH]cn2)C(=O)N[C@@H](CCC(N)=O)C(=O)N[C@H](C(=O)N[C@@H](Cc2ccc(O)cc2)C(=O)N[C@@H](CCC(N)=O)C(=O)N[C@@H](Cc2ccccc2)C(=O)N[C@H](C(=O)N[C@@H](CC(=O)O)C(=O)N[C@@H](CCCCN)C(=O)N[C@@H](CC(=O)O)C(=O)N[C@@H](CCCCN)C(=O)N[C@@H](CCC(N)=O)C(=O)N[C@@H](CC(=O)O)C(=O)N[C@@H](CO)C(=O)N[C@@H](C)C(=O)N2CCC[C@H]2C(=O)N[C@H](C(=O)N[C@@H](CC(=O)O)C(=O)N2CCC[C@H]2C(=O)N[C@@H](CO)C(=O)N[C@@H](CO)C(=O)N2CCC[C@H]2C(=O)N[C@@H](Cc2c[nH]cn2)C(=O)N[C@@H](CO)C(=O)N[C@@H](Cc2ccc(O)cc2)C(N)=O)C(C)C)[C@@H](C)O)[C@@H](C)CC)C(C)C)[C@@H](C)O)NC(=O)[C@H]([C@@H](C)O)NC(=O)CNC(=O)[C@H](Cc2ccccc2)NC(=O)[C@H](CCCNC(=N)N)NC1=O [SEQ ID NO: 51] (H-[AEEA]K(Palmitoyl)GCRFGTCTVQKLAHQIYQFTDKDKQDSAPVDPSSPHSY-NH2; disulfide 4-9) |  | 107 |  | 65
